{"source": "patent US20060293294A1", "about": "“Method for treatment or prevention of androgen deficiency” (HORMOS MEDICAL CORPORATION, priority 2004, published 2006)", "system": "healthy, elderly men", "experiment": "Phase I repeated dose study 101-50202: serum hormone concentrations before and during 28-day treatment", "format": "in vivo, human", "details": "for increase in the mean total testosterone compared to the baseline concentration: 300 mg dose", "text": "Fispemifene has been studied in two phase I studies in humans—in a single dose and a repeated dose study. Effect of fispemifene on hormone levels was one main focus of the repeated dose study. The phase I repeated dose study (number 101-50202) was a randomized, double-blind, placebo-controlled 28-day dose-escalation study performed in 32 healthy, elderly men, aged 50-68 years. The main objective of the study was to investigate the tolerability, safety and pharmacokinetics of fispemifene after repeated oral doses, but the study focused also on the effects of fispemifene on serum testosterone, estradiol, and other relevant hormones. The fispemifene doses 10, 30, 100 and 300 mg per day and placebo were administered once every morning as capsules containing 10 mg or 100 mg of fispemifene, or placebo. The dose was escalated to the next higher dose level, if the previous dose had been safe and well tolerated evaluated by the laboratory safety determinations and ultrasound of mammagy glands.\nThe variables for safety and tolerability were adverse events, vital signs, 12-lead ECG, clinical laboratory evaluations, physical examination, ultrasound examinations (mammary glands) and inhibin b. For pharmacokinetics, the concentrations of fispemifene and its metabolite(s) were to be evaluated. For pharmacodynamics, serum concentrations of FSH, LH, estradiol, testosterone, SHBG, prolactin, aldosterone, cortisol and TSH before and during treatment were measured and compared with the concentrations in the placebo-group."}
{"smiles": "OCCOCCOc1ccc(/C(=C(/CCCl)c2ccccc2)c2ccccc2)cc1", "note": "[Fispemifene, (Z)-2-{2-[4-(4-Chloro-1,2-diphenylbut-1-enyl)phenoxy]ethoxy}ethanol]", "values": [{"measurement": "Serum total testosterone concentration, Mean", "setting": "10 mg per day oral, Baseline", "value": 19.33, "unit": "nmol/L"}, {"measurement": "Serum total testosterone concentration, Mean", "setting": "10 mg per day oral, Day 8", "value": 19.83, "unit": "nmol/L"}, {"measurement": "Serum total testosterone concentration, Mean", "setting": "10 mg per day oral, Day 15", "value": 20.50, "unit": "nmol/L"}, {"measurement": "Serum total testosterone concentration, Mean", "setting": "10 mg per day oral, Day 22", "value": 22.00, "unit": "nmol/L"}, {"measurement": "Serum total testosterone concentration, Mean", "setting": "10 mg per day oral, Day 28", "value": 17.40, "unit": "nmol/L"}, {"measurement": "Serum total testosterone concentration, Mean", "setting": "30 mg per day oral, Baseline", "value": 15.00, "unit": "nmol/L"}, {"measurement": "Serum total testosterone concentration, Mean", "setting": "30 mg per day oral, Day 8", "value": 14.40, "unit": "nmol/L"}, {"measurement": "Serum total testosterone concentration, Mean", "setting": "30 mg per day oral, Day 15", "value": 15.00, "unit": "nmol/L"}, {"measurement": "Serum total testosterone concentration, Mean", "setting": "30 mg per day oral, Day 22", "value": 15.80, "unit": "nmol/L"}, {"measurement": "Serum total testosterone concentration, Mean", "setting": "30 mg per day oral, Day 28", "value": 14.80, "unit": "nmol/L"}, {"measurement": "increase of the mean total testosterone", "setting": "100 mg dose, 28 days of treatment", "value": "about 32%"}, {"measurement": "subjects in whom an increase in testosterone serum concentration was seen", "setting": "100 mg or 300 mg, 28-day treatment", "value": "all the subjects"}, {"measurement": "Serum total testosterone concentration, Mean", "setting": "100 mg per day oral, Baseline", "value": 14.27, "unit": "nmol/L"}, {"measurement": "Serum total testosterone concentration, Mean", "setting": "100 mg per day oral, Day 8", "value": 18.67, "unit": "nmol/L"}, {"measurement": "Serum total testosterone concentration, Mean", "setting": "100 mg per day oral, Day 15", "value": 19.00, "unit": "nmol/L"}, {"measurement": "Serum total testosterone concentration, Mean", "setting": "100 mg per day oral, Day 22", "value": 17.83, "unit": "nmol/L"}, {"measurement": "Serum total testosterone concentration, Mean", "setting": "100 mg per day oral, Day 28", "value": 18.83, "unit": "nmol/L"}, {"measurement": "increase in the mean total testosterone compared to the baseline concentration", "setting": "28 days of treatment", "value": 75, "unit": "%"}, {"measurement": "increase in the mean total testosterone compared to the baseline concentration", "setting": "28 days of treatment, listed as fispemifene", "value": "about 75%"}, {"measurement": "Serum total testosterone concentration, Mean", "setting": "300 mg per day oral, Baseline", "value": 15.67, "unit": "nmol/L"}, {"measurement": "Serum total testosterone concentration, Mean", "setting": "300 mg per day oral, Day 8", "value": 23.17, "unit": "nmol/L"}, {"measurement": "Serum total testosterone concentration, Mean", "setting": "300 mg per day oral, Day 15", "value": 27.00, "unit": "nmol/L"}, {"measurement": "Serum total testosterone concentration, Mean", "setting": "300 mg per day oral, Day 22", "value": 27.83, "unit": "nmol/L"}, {"measurement": "Serum total testosterone concentration, Mean", "setting": "300 mg per day oral, Day 28", "value": 27.50, "unit": "nmol/L"}, {"measurement": "serum concentrations of testosterone, FSH, LH, and SHBG", "setting": "during the 28 days of treatment", "value": "increased"}, {"measurement": "men with serum testosterone level above the upper limit of normal range (33 nmol/L) during treatment", "setting": "highest dose (300 mg), six men", "value": "Two out of six men"}, {"measurement": "change in the serum testosterone concentration", "setting": "within 28 days from the start of the treatment", "value": "clinically and statistically significant and dose dependent increase"}]}
